These results are taken from PMC3025356, “Mechanism of the Ca^2+-Dependent Interaction between S100A4 and Tail Fragments of Nonmuscle Myosin Heavy Chain IIA” (Journal of Molecular Biology, 2011).

Experiment [1] concerns the target T1, S100A4 (Homo sapiens, UniProt P26447).
T1 construct: We used full-length S100A4 for this analysis; made in house; host or cells: Escherichia coli BL21(DE3)
Put plainly: Fluorescence anisotropy titration, F-M16^N binding to S100A4. On the procedure: (§1) Titration (circles) was carried out in 20 mM NaCl, 10 mM Hepes, 1 mM Mg^2+, and 100 μM Ca^2+ at pH 7.5 and 20 °C. […] (squares).
(§2) Fluorescence spectra and anisotropy measurements were recorded using an SLM 8000 spectrofluorimeter (SLM, Urbana, IL). Fluorescein anisotropy measurements were carried out in L-format using a 515-nm emission filter. The four combinations of vertical and horizontal polarisers (vv, vh, hh, and hv) were each recorded for 30 s, and then the initial setting (vv) was re-read to check for signal stability. Calculations of the total fluorescence (Ivv + 2Ivh) and anisotropy (Ivv − Ivh/(Ivv + 2Ivh)), corrected for the g factor (hh/hv), were performed using an Excel spreadsheet. […] Note that the small correction for the emission intensity weighting to the observed anisotropy was not applied to these competitive titrations as the error will tend to cancel.
In general terms: Polarisation of emitted light reports the rotation of a fluorescent probe.

Experiment [2] addresses T1, S100A4. The experiment in a line: Stopped-flow fluorescein fluorescence, kinetics of myosin peptide binding to S100A4. On the procedure:
(§3) Stopped-flow measurements were carried out using an SX18-MV apparatus (Applied Photophysics Ltd., Leatherhead, UK) with a dead time of 1.5 ms.[40] Records were generally captured on a logarithmic time base. Absorption (turbidity) measurements were usually recorded using a 10-mm pathlength, while fluorescence was recorded with a 2-mm pathlength for excitation and emission. The stated concentrations of components refer to the reaction chamber after mixing, unless otherwise indicated. Tyrosine fluorescence was excited at 280 nm, and the emission was collected through a UG11 bandpass filter plus a 305-nm longpass filter.[18] Fluorescein fluorescence was excited at 480 nm, and the emission was detected through a 515-nm longpass filter. Quin-2 fluorescence was measured by excitation at 336 nm, and emission was collected with a 455-nm longpass filter. For simultaneous recording of light scatter, a second channel was monitored through a UG11 filter. Rate constants were obtained by fitting to single-exponential or double-exponential functions using Kaleidagraph (Synergy Software) or Applied Photophysics Pro-Data software. Modeling of kinetic schemes was performed using Berkeley Madonna software.
The value of K5 (scheme 2) was estimated from two independent experiments. From the competition
(§4) A second estimate was calculated from the apparent Ca2+ binding constant observed in the turbidity assay […]
Fig. S2. (a) Displacement of 0.1
monitored by fluorescein emission intensity. […] (b)
Ca2+ was mixed with 1 mM EGTA. […] Note in these
stopped-flow measurements of fluorescein intensity, no polarising optics were present at the magic angle

In experiment [3] the target is T1, S100A4. The experiment in a line: Summary of rate and equilibrium constants defined according to Scheme 1. It is filed as binding. The text has this:
The interaction of myosin tail fragments (M) with S100A4 depends on [Ca^2+], with little detectable binding in the absence of Ca^2+.[2,7,17] Scheme 1 presents a minimal pathway describing the thermodynamics and kinetics of this interaction, where arrow lengths indicate the approximate position of the equilibria involved.
[formula] Scheme 1 Ca2+ and myosin peptide (M) binding to S100A4.
The binding of Ca^2+ and a target peptide to S100A4, as shown in Scheme 1, is thermodynamically coupled so that K1K2 = K0K3. For simplicity, we assume a 1:1 stoichiometry and independent binding sites, which are unlikely to be true at least for the longer fragments. However, the trends in binding remain valid for more complex cases. Binding of target peptides to S100A4 in the absence of Ca^2+ is weak (K0 > 100 μM), while binding of target peptides to S100A4 in the presence of Ca^2+ (K2) is around a micromolar or less for longer fragments. Knowing that Ca^2+ binding to S100A4 has K1 = 2–5 μM (from the ITC data above and the literature[14,17,18]) requires that Ca^2+ binding to the M–S100A4 complex be very tight (K3 < 0.15 μM and even lower for M200). The latter cannot be easily determined directly as it requires protein concentrations greater than K0 (i.e., >>100 μM) so that the proteins remain bound together throughout the titration with Ca^2+. However, K3 is readily determined by calculation because values or limits for K0, K1, and K2 are available (Table 2). This aspect is addressed further below for M200, which has the complication of forming filaments at the ionic strength used.

Experiment [4] deals with T1, S100A4. Conditions: cited from earlier work. The text has this:
The site between helix III and helix IV of S100A4, exposed in the presence of Ca^2+, could accommodate an α-helical target of about 16 residues. The longer M32 mini ...

Experiment [5] addresses T1, S100A4. The experiment in a line: Quin-2 fluorescence, Ca^2+ dissociation from S100A4 in the presence of target peptides. The experiment is classed as binding. Conditions: 50 μM peptide premixed with 10 μM S100A4; 100 mM NaCl, 10 mM Hepes, 100 μM Ca^2+, pH 7.5, 20 °C. On the procedure:
Ca^2+ dissociation measurements for wild-type S100A4, using Quin-2 as described above, were repeated as a control for the effect of target peptides on this process. On mixing 10 μM S100A4 in the presence of Ca^2+ with 100 μM Quin-2, the observed profile was fitted to a single exponential with kobs = 17 s^− 1 (Fig. 5a; cf. k− 1 in Scheme 1).
Fig. 5 Dissociation of Ca^2+ from S100A4 in the absence and in the presence of target peptides monitored using Quin-2 fluorescence. (a) Mixed with 100 μM Quin-2 was 10 μM S100A4 + 50 μM Ca^2+ (stopped-flow reaction chamber concentrations). A superposed fit to a single exponential yields kobs = 17 s^− 1. […] (d) As in (a), but with 2.5 μM M200 premixed with 5 μM S100A4. A biphasic exponential fit yielded rate constants of 13 s^− 1 (A = 26%) and 0.30 s^− 1 (A = 74%). […] Experiments were carried out in either 20 mM NaCl, 20 mM Tris, 1 mM DTT, and 100 μM Ca^2+ at pH 7.5 and 20 °C (a and b; cf. Malashkevich et al.[17]), or 100 mM NaCl, 10 mM Hepes, and 100 μM Ca^2+ at pH 7.5 and 20 °C (c and d). […] Rate constants were unaffected by the inclusion of 1 mM Mg^2+.
as §3, with “Rate constants were obtained by fitting to single-exponential or double-exponential functions using Kaleidagraph (Synergy Software) or Applied Photophysics Pro-Data software. Modeling of kinetic schemes was performed using Berkeley Madonna software.” left out

Experiment [6] addresses T1, S100A4. Put plainly: Competition with F-M16^N binding to S100A4 (fluorescence anisotropy). The conditions noted are these: read-out: Kd (K2) by competition. On the procedure: as §1, §2
Experiment [7] addresses T1, S100A4. The experiment in a line: Competition of M32/M16^N with M200 for S100A4 (turbidity). Conditions: 250 μM peptide, 5 μM M200, 10 μM S100A4, Ca^2+. The experiment is classed as biochemical. The protocol: Fig. 9 Dissociation of M200 filaments by S100A4. (a) Initially, M200 was added (i) from a concentrated stock in 0.5 M NaCl to give a final concentration of 5 μM M200 (with respect to the polypeptide chain) in 100 mM NaCl, 10 mM Hepes, and 0.1 mM Ca^2+ at pH 7.5 and 20 °C. A biphasic rise in turbidity was recorded for 200 s (continuous line). Then 10 μM S100A4 (with respect to monomer concentration) was added (ii), followed by 0.2 mM EGTA (iii) and 1 mM Ca^2+ (iv). […] (b) M200 was diluted (i) into 100 mM NaCl to form filaments as in (a), then 5 μM S100A4 was added (ii), causing a 54% drop in turbidity. A further 5 μM S100A4 (iii) caused turbidity to fall to almost zero. (c) Stopped-flow records monitoring the dissociation of 5 μM M200 filaments on jumping [NaCl] from 100 mM to 120 mM NaCl. Other components of the buffer were 20 mM Hepes, 1 mM Mg^2+, and 100 μM Ca^2+ at pH 7.5 and 20 °C. […] In the presence of 20 μM S100A4 (lower trace), the turbidity decreased by 87% with a rate constant of 0.2 s^− 1.
Further information on Scheme 2 was obtained from competition assays. […] An independent estimate of K5 based on the Ca^2+ dependence of the turbidity assay yielded a value of 0.003 μM (see Supplementary Data).
The decrease in fluorescence, […]
that F-M16N binding was slightly faster. […]
as §4

Experiment [8] concerns the target T1, S100A4. Conditions: peptide residues 1908–1923; cited from earlier work. The text has this:
Our kinetic studies are also used to redefine the minimal binding fragment of the NM-MHC IIA tail (Fig. 1). Using a series of overlapping fragments and a blot overlay assay, Kriajevska et al. previously mapped the S100A4 binding site of nonmuscle myosin IIA to a 29-amino-acid region near the C-terminus (residues 1908–1936 in the current numbering system).[9]

pKd: −log10 of the molar value.

T1 sequence (P26447 whole entry): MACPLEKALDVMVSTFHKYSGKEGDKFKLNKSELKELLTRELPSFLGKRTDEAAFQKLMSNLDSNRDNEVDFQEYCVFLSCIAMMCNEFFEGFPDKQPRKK

`CSCC[C@H](NC(=O)[C@H](C)NC(=O)[C@H](CC(=O)O)NC(=O)CCCCCNC(=S)Nc1ccc2c(c1)C(=O)OC21c2ccc(O)cc2Oc2cc(O)ccc21)C(=O)N[C@@H](CC(N)=O)C(=O)N[C@@H](CCCNC(=N)N)C(=O)N[C@@H](CCC(=O)O)C(=O)N[C@H](C(=O)N[C@@H](CO)C(=O)N[C@@H](CO)C(=O)N[C@@H](CC(C)C)C(=O)N[C@@H](CCCCN)C(=O)N[C@@H](CC(N)=O)C(=O)N[C@@H](CCCCN)C(=O)N[C@@H](CC(C)C)C(=O)N[C@@H](CCCNC(=N)N)C(=O)N[C@@H](CCCNC(=N)N)C(N)=O)C(C)C` [F-M16^N]: the “quench of total fluorescein fluorescence on binding” value in experiment [1] is reported as about 35%. The “displacement rate constant by excess M32” value in experiment [2] (0.1 μM F-M16^N, 5 μM S100A4, 60 μM M32, Ca^2+) was determined as 7.7 s^− 1. Moreover, the “kobs on mixing with EGTA (Ca^2+ dissociation from complex, k− 3)” value in experiment [2] (0.1 μM F-M16^N, 10 μM S100A4, 50 μM Ca^2+, 1 mM EGTA) worked out at 9.4 s^− 1. In addition, the kobs of binding in experiment [2] (0.1 μM F-M16^N, 25 μM S100A4) came to 138 s^− 1. For the same molecule, in experiment [2] (10 μM S100A4), the “calculated kobs via k− 2 and k− 1 route” value is reported as 1.8 s^− 1. Further, the maximum kobs in experiment [2] (above 25 μM S100A4) was 150 s^− 1. Besides, the “association rate constant k2 relative to M32” value in experiment [2] (competition with equimolar M32, modelled) is “about twice as large as that of M32”. Further, the fluorescence quench overshoot in experiment [2] (equimolar F-M16N and M32 mixed with equimolar S100A4) worked out at 12%. For the same molecule, in experiment [2] (equimolar F-M16N and M32 with equimolar S100A4, relative to absence of M32), the “amplitude of fluorescence decrease with competitor” value is “about half the amplitude observed in the absence of M32”. In addition, the “dissociation rate constants, F-M16N vs M32” value in experiment [2] (modelled) is listed as “similar”. The kon in experiment [2] (read-out: association rate constant kon (k2)) is 4.9e+06 M⁻¹ s⁻¹. For the same molecule, the koff in experiment [2] (read-out: dissociation rate constant koff (k− 2)) worked out at 6.2 s⁻¹. Moreover, in experiment [2] (thermodynamic balance of Scheme 1), the “k3, Ca^2+ binding to preformed peptide–S100A4 complex” value was > 5 × 10^8 M^− 1 s^− 1. Also, the k1 in experiment [3] (Ca^2+ association to free S100A4, common to all targets) was determined as 3.2 μM^− 1 s^− 1. Also, in experiment [3] (Ca^2+ association to peptide–S100A4), the k3 is over 500 μM^− 1 s^− 1. In addition, the “k− 1” value in experiment [3] (Ca^2+ dissociation from free S100A4, common to all targets) turned out to be 16 s^− 1. In addition, the “k− 3” value in experiment [3] (Ca^2+ dissociation from peptide–S100A4–Ca^2+) amounted to 9.4 s^− 1. Besides, in experiment [3] (peptide association to S100A4–Ca^2+), the k2 is reported as 4.9 μM^− 1 s^− 1. Also, the “k− 2” value in experiment [3] (peptide dissociation from S100A4–Ca^2+) worked out at 6.2 s^− 1.
With “R1893-R1923 myosin fragment: R1893-R1923 myosin fragment of Malashkevich et al.”, the stoichiometry in experiment [4] is given as ~0.5 mol of peptide per mole of S100A4 (dimer).
As to `CSCC[C@H](NC(=O)[C@H](C)NC(=O)[C@H](CC(=O)O)NC(C)=O)C(=O)N[C@@H](CC(N)=O)C(=O)N[C@@H](CCCNC(=N)N)C(=O)N[C@@H](CCC(=O)O)C(=O)N[C@H](C(=O)N[C@@H](CO)C(=O)N[C@@H](CO)C(=O)N[C@@H](CC(C)C)C(=O)N[C@@H](CCCCN)C(=O)N[C@@H](CC(N)=O)C(=O)N[C@@H](CCCCN)C(=O)N[C@@H](CC(C)C)C(=O)N[C@@H](CCCNC(=N)N)C(=O)N[C@@H](CCCNC(=N)N)C(N)=O)C(C)C` [M16^N], the “kobs, Ca^2+ dissociation with peptide” value in experiment [5] stood at 16 s^− 1. In addition, the pKd in experiment [6] was at most 4.00. In experiment [7], the “inhibition of turbidity change amplitude” value is on record as “no effect”. Also, the “difference in binding constant vs longer fragments (1851–1960, 1893–1923)” value in experiment [8] is ~2 -fold.

For orientation: kon means a measure of how fast the partners come together. The koff is the rate constant with which the complex falls apart. Usually pKd stands for −log10 of the Kd, conventionally taken in molar units.
